In the supplement of paper PMC10307832:

Assays:
Assay in all cases: relative viability (nuclei count vs DMSO), 5 days (fraction); higher = more cells survive
BAM7 + Palbociclib = compound: CCOC1=CC=CC=C1N=NC2=C(NN(C2=O)C3=NC(=CS3)C4=CC=CC=C4)C [BAM7] + CC(=O)c1c(C)c2cnc(Nc3ccc(N4CCNCC4)cn3)nc2n(C2CCCC2)c1=O [Palbociclib] (partner 0.5 µM)
Procedure, shortened: (§1)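 Lung cancer cell lines, seeded in 1536-well plates, were treated the following day by pin tool with a single drug or with five library-drug doses (not always all listed) in √10 steps on top of a fixed anchor-drug dose. Cells were fixed and nuclei stained in one step after 5 days, and nuclei were counted. Relative viability is the nuclei count for treated wells divided by that for vehicle wells, reported as medians of duplicate plates.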

BAM7 + Pemetrexed = compound: CCOC1=CC=CC=C1N=NC2=C(NN(C2=O)C3=NC(=CS3)C4=CC=CC=C4)C [BAM7] + Nc1nc2[nH]cc(CCc3ccc(C(=O)N[C@@H](CCC(=O)O)C(=O)O)cc3)c2c(=O)[nH]1 [Pemetrexed] (partner 0.2 µM)
Procedure, shortened: as §1

[1] = compound: CCn1c(-c2nonc2N)nc2c(C#CC(C)(C)O)ncc(OC[C@H]3CCCNC3)c21 + Cc1nc(NC(=O)N2CCC[C@H]2C(N)=O)sc1-c1ccnc(C(C)(C)C(F)(F)F)c1 [Alpelisib] (partner 2 µM)
Procedure, shortened: as §1

[2] = compound: CCn1c(-c2nonc2N)nc2c(C#CC(C)(C)O)ncc(OC[C@H]3CCCNC3)c21 + Nc1ncn([C@H]2C[C@H](O)[C@@H](CO)O2)c(=O)n1 [Decitabine] (partner 2 µM)
Procedure, shortened: as §1

| Cell Line | relative viability (BAM7 + Palbociclib; first compound 0.5 µM) | relative viability (BAM7 + Palbociclib; first compound 5 µM) | relative viability (BAM7 + Palbociclib; first compound 15.81 µM) | relative viability (BAM7 + Palbociclib; first compound 50 µM) | relative viability (BAM7 + Pemetrexed; first compound 0.5 µM) | relative viability (BAM7 + Pemetrexed; first compound 5 µM) | relative viability (BAM7 + Pemetrexed; first compound 15.81 µM) | relative viability (BAM7 + Pemetrexed; first compound 50 µM) | relative viability ([1]; first compound 0.01 µM) | relative viability ([1]; first compound 0.03162 µM) | relative viability ([1]; first compound 0.1 µM) | relative viability ([1]; first compound 0.3162 µM) | relative viability ([1]; first compound 1 µM) | relative viability ([2]; first compound 0.01 µM) | relative viability ([2]; first compound 0.03162 µM) | relative viability ([2]; first compound 0.1 µM) | relative viability ([2]; first compound 0.3162 µM) | relative viability ([2]; first compound 1 µM) |
| --- | --- | --- | --- | --- | --- | --- | --- | --- | --- | --- | --- | --- | --- | --- | --- | --- | --- | --- |
| RERF-LC-KJ | 0.953 | 0.876 | 0.609 | 0.63 | 0.518 | 0.53 | 0.464 | 0.529 | 0.886 | 0.958 | 0.737 | 0.656 | 0.781 | 0.694 | 0.643 | 0.684 | 0.59 | 0.656 |
| LXF-289 | 0.63 | 0.62 | 0.616 | 0.616 | 1.01 | 0.994 | 0.918 | 0.865 | 1.04 | 1.02 | 1.01 | 0.983 | 1.04 | 0.42 | 0.369 | 0.352 | 0.35 | 0.364 |
| PC-14 | 0.592 | 0.479 | 0.335 | 0.42 | 0.128 | 0.129 | 0.142 | 0.165 | 0.945 | 0.909 | 1 | 0.888 | 0.865 | 0.25 | 0.2 | 0.222 | 0.197 | 0.29 |
| NCI-H650 | 0.324 | 0.32 | 0.272 | 0.318 | 1.03 | 0.979 | 0.987 | 1 | 1.1 | 1.21 | 1.02 | 1.04 | 1.24 | 0.323 | 0.348 | 0.32 | 0.304 | 0.29 |
| NCI-H1666 | 0.628 | 0.627 | 0.669 | 0.677 | 0.919 | 0.846 | 0.82 | 0.82 | 0.874 | 1.1 | 0.992 | 0.792 | 0.831 | 0.71 | 0.657 | 0.809 | 0.834 | 0.735 |
| NCI-H2085 | 0.462 | 0.483 | 0.446 | 0.45 | 1.02 | 0.675 | 0.844 | 0.992 | 0.974 | 0.866 | 0.988 | 0.865 | 0.84 | 0.489 | 0.517 | 0.601 | 0.58 | 0.556 |
| NCI-H1734 | 0.38 | 0.332 | 0.364 | 0.318 | 0.437 | 0.415 | 0.382 | 0.411 | 0.652 | 0.624 | 0.631 | 0.655 | 0.658 | 0.453 | 0.496 | 0.546 | 0.465 | 0.484 |
| NCI-H2126 | 0.334 | 0.332 | 0.345 | 0.362 | 0.746 | 0.672 | 0.574 | 0.641 | 0.72 | 0.793 | 0.74 | 0.746 | 0.753 | 0.505 | 0.608 | 0.583 | 0.54 | 0.548 |
| EMC-BAC-2 | 0.512 | 0.519 | 0.524 | 0.563 | 0.439 | 0.458 | 0.474 | 0.452 | 0.756 | 0.73 | 0.7 | 0.759 | 0.784 | 0.966 |  | 0.996 | 0.916 | 1.04 |
| NCI-H1993 | 0.502 | 0.539 | 0.453 | 0.478 | 0.62 | 0.529 | 0.5 | 0.581 | 0.732 | 0.718 | 0.57 | 0.729 | 0.868 | 0.534 | 0.643 | 0.599 | 0.63 | 0.677 |
| NCI-H520 | 0.262 | 0.233 | 0.235 | 0.26 | 0.696 | 0.776 | 0.626 | 0.569 | 1.01 | 0.883 | 0.605 | 0.851 | 0.547 | 0.483 | 0.47 | 0.387 | 0.359 | 0.332 |
| NCI-H647 | 0.506 | 0.431 | 0.509 | 0.447 | 0.168 | 0.2 | 0.188 | 0.17 | 1.2 | 1.17 | 1.02 | 1.03 | 1.23 | 0.384 | 0.379 | 0.407 | 0.299 | 0.371 |
| NCI-H1792 | 0.642 | 0.687 | 0.624 | 0.66 | 0.943 | 1.13 | 0.707 | 0.816 | 0.776 | 0.697 | 0.667 | 0.596 | 0.791 | 0.558 | 0.499 | 0.547 | 0.419 | 0.518 |
| SK-LU-1 | 0.399 | 0.405 | 0.43 | 0.453 | 0.906 | 1.07 | 0.905 | 0.99 | 1.08 | 1.26 | 0.968 | 1 | 1.13 | 0.669 | 0.639 | 0.75 | 0.611 | 0.574 |
| NCI-H2009 | 0.189 | 0.189 | 0.228 | 0.29 | 1.03 | 1.06 | 1.03 | 1.01 | 1.15 | 1.19 | 1.22 | 1.17 | 1.18 | 0.35 | 0.469 | 0.354 | 0.342 | 0.39 |
| LOU-NH91 | 0.458 | 0.569 | 0.538 | 0.517 | 0.347 | 0.436 | 0.392 | 0.346 | 0.751 | 0.795 | 0.736 | 0.706 | 0.732 | 0.821 | 0.788 | 0.891 | 0.73 | 0.779 |
| NCI-H2405 | 0.507 | 0.577 | 0.546 | 0.553 | 1.11 | 1.06 | 1.09 | 1.11 | 0.839 | 0.782 |  | 0.749 | 0.855 | 0.782 | 0.75 | 0.721 | 0.692 | 0.647 |
| LCLC-97TM1 | 0.272 | 0.185 |  | 0.186 | 0.19 | 0.147 |  | 0.159 |  | 0.278 | 0.224 | 0.235 | 0.257 | 0.2 | 0.226 | 0.268 | 0.235 | 0.268 |
| H3255 | 0.337 | 0.341 | 0.359 | 0.355 | 0.578 | 0.543 | 0.548 | 0.545 | 0.659 | 0.705 | 0.692 | 0.562 | 0.607 | 0.614 | 0.58 | 0.639 | 0.546 | 0.6 |
| SK-MES-1 | 0.332 | 0.35 | 0.308 | 0.272 | 0.919 | 0.906 | 0.814 | 0.866 | 0.87 | 0.916 | 0.856 | 1.11 | 0.953 | 0.329 | 0.397 | 0.399 | 0.353 | 0.378 |
| NCI-H1437 | 0.318 | 0.326 | 0.306 | 0.326 | 0.308 | 0.304 | 0.33 | 0.372 | 0.895 | 0.964 | 0.965 | 0.778 | 0.902 | 0.558 | 0.541 | 0.564 | 0.611 | 0.627 |
| LU99A | 0.425 | 0.372 | 0.383 | 0.414 | 0.146 | 0.18 | 0.173 | 0.198 | 0.586 | 0.558 | 0.538 | 0.504 | 0.47 | 0.884 | 0.971 | 0.866 | 0.826 | 0.883 |
| HCC-827 | 0.532 | 0.467 | 0.493 | 0.481 | 0.27 | 0.25 | 0.28 | 0.247 | 1.01 | 0.93 | 0.948 | 1 | 1.05 | 0.348 | 0.319 | 0.331 | 0.308 | 0.308 |
| LK-2 | 0.662 | 0.648 | 0.741 | 0.598 | 0.277 | 0.249 | 0.32 | 0.266 | 1.24 | 1.27 | 0.984 | 0.916 | 1.01 | 0.267 | 0.302 | 0.294 | 0.312 | 0.307 |
| HCC-366 | 0.406 | 0.343 | 0.303 | 0.389 | 0.107 | 0.117 | 0.125 | 0.115 | 0.362 | 0.427 | 0.293 | 0.475 | 0.386 | 0.342 | 0.34 | 0.361 | 0.302 | 0.335 |
| BEN | 0.491 | 0.493 | 0.546 | 0.492 | 0.74 | 0.88 | 0.98 | 1 | 1.01 | 1.17 | 1.01 | 0.987 | 1.01 | 0.682 | 0.693 | 0.569 | 0.67 | 0.782 |
| NCI-H23 | 0.612 | 0.479 | 0.466 | 0.519 | 0.832 | 0.851 | 0.622 | 0.709 | 0.605 | 0.717 | 0.686 | 0.528 | 0.588 | 0.287 | 0.332 | 0.307 | 0.27 | 0.302 |
| NCI-H1395 | 0.578 | 0.627 | 0.606 | 0.614 | 0.856 | 0.91 | 0.857 | 1.07 | 0.986 | 1.35 | 1.01 | 0.79 | 0.76 | 0.819 | 0.735 | 0.742 | 0.583 | 0.677 |
| 201T | 0.358 | 0.336 | 0.307 | 0.335 | 0.299 | 0.324 | 0.327 | 0.313 | 0.989 | 0.992 | 0.99 | 0.978 | 1.02 | 0.879 | 0.822 | 0.888 | 0.837 | 0.866 |
| NCI-H2170 | 0.38 | 0.381 | 0.329 | 0.319 | 0.252 | 0.281 | 0.251 | 0.269 | 0.837 | 0.833 | 0.824 | 0.721 | 0.759 | 0.503 | 0.445 | 0.475 | 0.454 | 0.53 |
